# Laboratory results: patent US6376541B1, “Upregulation of endogenous prostaglandins to lower intraocular pressure” (Alcon Manufacturing, Ltd., priority 1998, dated 2002)
# Where two headings read alike, the source gives them in different places.
# Key:
# [1] = system: cultured trabecular-meshwork cells; details: cited from earlier work
# [2] = system: human trabecular meshwork cells; assay: Induction of PGE2 synthesis in cultured human trabecular meshwork cells (14C-arachidonic acid, TLC); assay type: cell-based; details: 10 ng/ml each; for % of total CPM in PGE2 fraction (mean ± std dev): 17 hours then 14C-arachidonic acid for 4 hours
# Protocol: Primary human trabecular meshwork cells were grown in culture according to the method of Weinreb, et al. from a donor. Cells (passage 5) were seeded into 12-well plates and grown until they just reached confluency, with culture medium replacement every 3-4 days. Triplicate wells of cells were then exposed to interleukin-1 beta (10 ng/ml final), TGF-beta 1 (10 ng/ml final) or both in 1 ml of Ham's F-10 Nutrient Mixture (Gibco-BRL), containing 2 mM L-glutamine and 0.4 mg/ml bovine serum albumin (Sigma Chemical Co.). Control cells received medium devoid of IL-1β and TGF-β1. Cells were then incubated in a 37° C., 5% CO2, humidified incubator for 17 hours. ^14C-arachidonic acid (300,000 dpm) was added to each well, and the cells were returned to the incubator for an additional 4 hours. A modified Bligh & Dyer lipid extraction [Can. J. Biochem. Physiol. 37,911 (1959)] was then performed on the cells and supernatants. An aliquot of the extracted samples and fatty acid standards were spotted on a moderate hardness silica gel thin-layer chromatography plate (Alltech K5, 20×20 cm, 250 μm thick). The plate was developed in prostaglandin TLC solvent (11:5:2:10 ethyl acetate: 2,2,4-trimethylpentane: acetic acid: distilled water), air-dried, and standard bands were visualized with vaporization of iodine crystals. Each lane on the plate was divided into segments based upon the position of the standards, and each segment was scraped off of the plate with a razor blade into a glass scintillation vial. Opti-fluor scintillation cocktail (Packard) was added to each vial, and the samples were counted on a beta scintillation counter. The amount of each fraction was calculated as a percentage of total counts per minute (CPM) from that sample.
# [3] = system: human corneal fibroblasts; assay: Induction of prostaglandin synthesis in cultured human corneal fibroblasts (enzyme immunoassay of conditioned medium); assay type: cell-based; details: 10 ng/ml
# Protocol: Primary human corneal fibroblasts were grown in culture from freshly denuded corneal stromal tissue from a donor. Cells (passage 4) were seeded into 12-well plates and grown to 80% confluency. Selected cells were then exposed to Interleukin-1 alpha (10 ng/ml final) in Ham's F-10 Nutrient mixture (HyClone Corporation) containing 10% fetal bovine serum by medium replacement in the wells. Control cells received medium devoid of this inflammatory cytokine. Cells were then incubated in a 37° C., 5% CO2, humidified incubator for 24 hours. Conditioned medium was then removed, centrifuged to remove any cellular debris (3 minutes at 2600 rpm and 4° C.), and analyzed for PGE2 and PGF2α, levels in the medium using specific enzyme immunoassay kits (Cayman Scientific). Cells in each well were counted, and prostaglandin levels normalized to the cell count for the respective wells.
# fibroblasts = details: cited from earlier work
# [4] = 24 hours, conditioned medium, normalized to cell count
compound,measurement,setting,value
CCCCC/C=C\C/C=C\C/C=C\C/C=C\CCCC(=O)O [arachidonic acid],effect on PGE2 synthesis,[1],stimulate PGE2 synthesis
NCCc1c[nH]cn1 [histamine],effect on PGE2 synthesis,[1],stimulate PGE2 synthesis
CCCCC/C=C\C\C=C/C=C/C=C/[C@@H](SC[C@H](NC(=O)CC[C@H](N)C(=O)O)C(=O)NCC(=O)O)[C@@H](O)CCCC(=O)O [leukotriene C4],effect on PGE2 synthesis,[1],stimulate PGE2 synthesis
CNc1ccc2oc(C[C@H]3O[C@@]4(CC[C@H]3C)O[C@H]([C@H](C)C(=O)c3ccc[nH]3)[C@H](C)C[C@H]4C)nc2c1C(=O)O [lonophore A23187],effect on PGE2 synthesis,[1],stimulate PGE2 synthesis
"IL-1β: interleukin-1 beta, prostaglandin upregulating agent (Genzyme)",increase in PGE2 synthesis over non-treated control,[2],440%
same,% of total CPM in PGE2 fraction (mean ± std dev),[2],9.34 ± 0.70%
INTERLEUKIN-1α: inflammatory cytokine Interleukin-1 alpha,"PGE2 produced per 100,000 cells in 24 hours (mean ± std dev)",[3]; [4],"48,736 ± 3597 PICOGRAMS"
same,"PGF2α produced per 100,000 cells in 24 hours (mean ± std dev)",[3]; [4],1704 ± 367 PICOGRAMS
same,elevation of the level of PGE2,[3]; versus unstimulated cells,> 47 fold
same,elevation of the level of PGF2α,[3]; versus unstimulated cells,> 3 fold
PDGF,stimulation of PGE2 synthesis,fibroblasts,10-15 fold
same,stimulation of PGE2 synthesis,fibroblasts; in the presence of exogenous arachidonic acid,28 fold
"TGF-β1: Transforming Growth Factor beta 1, prostaglandin upregulating agent",increase in PGE2 synthesis over non-treated control,[2],74%
same,% of total CPM in PGE2 fraction (mean ± std dev),[2],3.01 ± 0.38%
